Source: the supplement of paper PMC12533247
± gives the standard deviation of the averaged measurements.

Columns and labels:
[1] = tested on: primary dermal fibroblasts; test: % change in live cells vs DMSO control; higher = less cytotoxic; settings: time (h post treatment): 48
Experimental: (§1)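 Cytotoxicity in uninfected 2D primary donor keratinocytes (20 h post treatment) and fibroblasts (48 h post treatment), measured with NucSpot live/dead dyes on IncuCyte. Live cells are normalised to the 0.2% DMSO control and shown as % change. Three biological replicates for each of donors 3, 4 and 5.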

primary keratinocytes = test: as above; settings: time (h post treatment): 20
Experimental: as §1

[2] = tested on: HSV-1 K26-GFP infected primary human skin cells; test: % change of HSV-1 GFP signal vs untreated infected cells; higher = less antiviral inhibition; settings: cell type: primary dermal fibroblasts, time (h post infection): 48
Experimental: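 2D primary donor-derived dermal fibroblasts infected with GFP-HSV-1 K26 at MOI 1, treated 1 h later with compound dilutions and read at 48 hpi on IncuCyte. GFP integrated intensity is normalised to mock-infected and untreated infected wells (% change; -100 = full inhibition).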

[3] = tested on: HSV-1 K26-GFP infected 3D skin equivalent; test: % change of tdTomato fibroblast signal relative to infected DMSO control; higher = higher signal (negative = inhibition / toxicity); settings: time (h post infection): 48
Experimental: (§2)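 Triplicate dose-response (0.04 to 10 uM) of 11 top compounds in 3D bioprinted skin equivalents (submerged and ALI models) infected with GFP-HSV-1 K26 at MOI 0.1 and fixed at 48 hpi. GFP (virus) and tdTomato (fibroblast viability) signals are normalised to per-plate controls.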

[4] = tested on: HSV-1 K26-GFP infected 3D skin equivalent; test: % activity on HSV-1 GFP signal (0 = infected DMSO control, -100 = uninfected control); higher = higher signal (negative = inhibition / toxicity); settings: time (h post infection): 48
Experimental: as §2

CC1(C)CC(=O)c2c(C(F)(F)F)nn(-c3ccc(C(N)=O)c(N[C@H]4CC[C@H](O)CC4)c3)c2C1 [SNX-2112]
% change in live cells ([1]; 0.082305 µM, donor: 3): -17.7 ± 12% | % change in live cells ([1]; 0.082305 µM, donor: 4): 14.3 ± 4% | % change in live cells ([1]; 0.082305 µM, donor: 5): 9 ± 19% | % change in live cells ([1]; 0.246914 µM, donor: 3): -20.7 ± 12% | % change in live cells ([1]; 0.246914 µM, donor: 4): 4.67 ± 5.1% | % change in live cells ([1]; 0.246914 µM, donor: 5): -1.67 ± 24% | % change in live cells ([1]; 0.740741 µM, donor: 3): -23 ± 14% | % change in live cells ([1]; 0.740741 µM, donor: 4): 0.333 ± 10% | % change in live cells ([1]; 0.740741 µM, donor: 5): -1.67 ± 29% | % change in live cells ([1]; 2.22222 µM, donor: 3): -22.3 ± 14% | % change in live cells ([1]; 2.22222 µM, donor: 4): 0.667 ± 8.6% | % change in live cells ([1]; 2.22222 µM, donor: 5): -8.67 ± 26% | % change in live cells ([1]; 6.66667 µM, donor: 3): -22.7 ± 15% | % change in live cells ([1]; 6.66667 µM, donor: 4): 6.33 ± 9.4% | % change in live cells ([1]; 6.66667 µM, donor: 5): -10.3 ± 23% | % change in live cells ([1]; 20 µM, donor: 3): -22.7 ± 16% | % change in live cells ([1]; 20 µM, donor: 4): 7.33 ± 12% | % change in live cells ([1]; 20 µM, donor: 5): -13.7 ± 20% | % change in live cells ([1]; 60 µM, donor: 3): -21 ± 27% | % change in live cells ([1]; 60 µM, donor: 4): 1 ± 18% | % change in live cells ([1]; 60 µM, donor: 5): -32.3 ± 9.3% | % change in live cells (primary keratinocytes; 0.082305 µM, donor: 3): -14.3 ± 3.2% | % change in live cells (primary keratinocytes; 0.082305 µM, donor: 4): 4.33 ± 5.7% | % change in live cells (primary keratinocytes; 0.082305 µM, donor: 5): -22 ± 11% | % change in live cells (primary keratinocytes; 0.246914 µM, donor: 3): -38.3 ± 1.5% | % change in live cells (primary keratinocytes; 0.246914 µM, donor: 4): -29 ± 21% | % change in live cells (primary keratinocytes; 0.246914 µM, donor: 5): -60.7 ± 4.5% | % change in live cells (primary keratinocytes; 0.740741 µM, donor: 3): -40.3 ± 5.7% | % change in live cells (primary keratinocytes; 0.740741 µM, donor: 4): -53.3 ± 14% | % change in live cells (primary keratinocytes; 0.740741 µM, donor: 5): -72.3 ± 2.5% | % change in live cells (primary keratinocytes; 2.22222 µM, donor: 3): -43.7 ± 4.5% | % change in live cells (primary keratinocytes; 2.22222 µM, donor: 4): -58.7 ± 11% | % change in live cells (primary keratinocytes; 2.22222 µM, donor: 5): -77 ± 2% | % change in live cells (primary keratinocytes; 6.66667 µM, donor: 3): -49 ± 7.5% | % change in live cells (primary keratinocytes; 6.66667 µM, donor: 4): -70 ± 6.2% | % change in live cells (primary keratinocytes; 6.66667 µM, donor: 5): -79 ± 3.5% | % change in live cells (primary keratinocytes; 20 µM, donor: 3): -59.3 ± 19% | % change in live cells (primary keratinocytes; 20 µM, donor: 4): -74 ± 1.7% | % change in live cells (primary keratinocytes; 20 µM, donor: 5): -76.7 ± 5.5% | % change in live cells (primary keratinocytes; 60 µM, donor: 3): -79.3 ± 3.8% | % change in live cells (primary keratinocytes; 60 µM, donor: 4): -74 ± 14% | % change in live cells (primary keratinocytes; 60 µM, donor: 5): -57.7 ± 5.5% | % change of HSV-1 GFP signal ([2]; 0.001 µM, donor: 3): 3.58 ± 4.6% | % change of HSV-1 GFP signal ([2]; 0.001 µM, donor: 4): 7.21 ± 14% | % change of HSV-1 GFP signal ([2]; 0.003 µM, donor: 3): 2.41 ± 10% | % change of HSV-1 GFP signal ([2]; 0.003 µM, donor: 4): 7.68 ± 19% | % change of HSV-1 GFP signal ([2]; 0.0091 µM, donor: 3): 3.09 ± 24% | % change of HSV-1 GFP signal ([2]; 0.0091 µM, donor: 4): 10 ± 30% | % change of HSV-1 GFP signal ([2]; 0.0274 µM, donor: 3): -21.5 ± 25% | % change of HSV-1 GFP signal ([2]; 0.0274 µM, donor: 4): -8.2 ± 12% | % change of HSV-1 GFP signal ([2]; 0.0823 µM, donor: 3): -87.9 ± 5.2% | % change of HSV-1 GFP signal ([2]; 0.0823 µM, donor: 4): -77.6 ± 1.4% | % change of HSV-1 GFP signal ([2]; 0.2469 µM, donor: 3): -98.67 ± 0.4% | % change of HSV-1 GFP signal ([2]; 0.2469 µM, donor: 4): -98.8 ± 1% | % change of HSV-1 GFP signal ([2]; 0.7407 µM, donor: 3): -99.34 ± 0.5% | % change of HSV-1 GFP signal ([2]; 0.7407 µM, donor: 4): -99.59 ± 0.4% | % change of HSV-1 GFP signal ([2]; 2.2222 µM, donor: 3): -99.32 ± 0.49% | % change of HSV-1 GFP signal ([2]; 2.2222 µM, donor: 4): -99.73 ± 0.3% | % change of HSV-1 GFP signal ([2]; 6.6667 µM, donor: 3): -99.47 ± 0.27% | % change of HSV-1 GFP signal ([2]; 6.6667 µM, donor: 4): -99.66 ± 0.37% | % change of HSV-1 GFP signal ([2]; 20 µM, donor: 3): -99.48 ± 0.42% | % change of HSV-1 GFP signal ([2]; 20 µM, donor: 4): -99.71 ± 0.22% | % change of tdTomato fibroblast signal ([3]; 0.041152 µM, model: ALI): 0.975 ± 12% | % change of tdTomato fibroblast signal ([3]; 0.041152 µM, model: submerged): -4.63 ± 9.5% | % change of tdTomato fibroblast signal ([3]; 0.123457 µM, model: ALI): -7.26 ± 3.1% | % change of tdTomato fibroblast signal ([3]; 0.123457 µM, model: submerged): -2.18 ± 9.6% | % change of tdTomato fibroblast signal ([3]; 0.37037 µM, model: ALI): -17.9 ± 3.2% | % change of tdTomato fibroblast signal ([3]; 0.37037 µM, model: submerged): -23.3 ± 11% | % change of tdTomato fibroblast signal ([3]; 1.111111 µM, model: ALI): -33.5 ± 9.5% | % change of tdTomato fibroblast signal ([3]; 1.111111 µM, model: submerged): -52.2 ± 3.6% | % change of tdTomato fibroblast signal ([3]; 3.33333 µM, model: ALI): -36.3 ± 4.9% | % change of tdTomato fibroblast signal ([3]; 3.33333 µM, model: submerged): -55 ± 2.7% | % change of tdTomato fibroblast signal ([3]; 10 µM, model: ALI): -32.3 ± 6.5% | % change of tdTomato fibroblast signal ([3]; 10 µM, model: submerged): -50.9 ± 1.7% | % activity on HSV-1 GFP signal ([4]; 0.041152 µM, model: ALI): -92.8 ± 5% | % activity on HSV-1 GFP signal ([4]; 0.041152 µM, model: submerged): -58.7 ± 8.8% | % activity on HSV-1 GFP signal ([4]; 0.123457 µM, model: ALI): -99.7 ± 5.3% | % activity on HSV-1 GFP signal ([4]; 0.123457 µM, model: submerged): -81.7 ± 5.9% | % activity on HSV-1 GFP signal ([4]; 0.37037 µM, model: ALI): -98.9 ± 6.7% | % activity on HSV-1 GFP signal ([4]; 0.37037 µM, model: submerged): -98.1 ± 7.8% | % activity on HSV-1 GFP signal ([4]; 1.111111 µM, model: ALI): -103 ± 4.6% | % activity on HSV-1 GFP signal ([4]; 1.111111 µM, model: submerged): -101 ± 4.8% | % activity on HSV-1 GFP signal ([4]; 3.33333 µM, model: ALI): -98.4 ± 6% | % activity on HSV-1 GFP signal ([4]; 3.33333 µM, model: submerged): -105 ± 3.8% | % activity on HSV-1 GFP signal ([4]; 10 µM, model: ALI): -107 ± 7.2% | % activity on HSV-1 GFP signal ([4]; 10 µM, model: submerged): -102 ± 6.5%
